Measurements taken from publication PMC9031611 (Journal of Clinical Medicine, 2022).
Like-named read-outs stand apart in the source and are kept apart here.

What was measured:
[1] = Solubility of MG005 and MG010; format: physicochemical; conditions: in words
[2] = design: method as in PMID 26100670; conditions: in vitro and in vivo studies; cited from earlier work
[3] = cited from earlier work
[4] = Pharmacokinetics assessments in phase I patients (plasma, steady state); conditions: for Tmax,ss: median (range); for AUC: AUC0→τ,ss
Method: This was a dual-agent, open-label, phase I study. […] We conducted the trial following the 3 + 3 dose-escalation phase I clinical trial design. […] There were three cohorts and at least […] were enrolled for each dose level. No intra-patient dose escalation was allowed, and each patient’s first dose was at least 5 days apart from the next patient’s first dose. DLTs were assessed during the initial 8-week and 4-week treatment periods for Cohort 1 and Cohorts 2/3, respectively. The criteria for DLTs are listed in Supplementary Table S1. […] The enrolled patients were treated until disease progression.
A plasma concentration–time profile for MG005 as a single agent was established, and PK parameters in terms of the following were also determined: peak plasma concentration (Cmax)/at steady state (Cmax,ss); time to reach peak concentration (Tmax)/at steady state (Tmax,ss); AUC in 1 dosing interval at steady state (AUC0→τ,ss).

[5] = cited from earlier work; remark: listed apart in the source
[6] = Day 28, Cohort 1: 750 mg QD MG005 plus 200 mg QD sorafenib, mean ± SD
[7] = Day 28, Cohort 2: 1500 mg QD MG005 plus 200 mg QD sorafenib, mean ± SD
[8] = Day 28, Cohort 2: 1500 mg QD MG005 plus 200 mg QD sorafenib
[9] = Day 28, Cohort 3: 750 mg BID MG005 plus 200 mg QD sorafenib, mean ± SD

O=C1Nc2ccc(I)cc2/C1=C/c1cc(Br)c(O)c(Br)c1 [GW5074]
solubility [1]: not satisfactory | solubility ([1]; listed as MG005): poor solubility | mutagenicity and genotoxicity [2]: neither mutagenic nor genotoxic | findings of repeated toxicity studies ([3]; dog, in vivo): did not cause major abnormality except emesis and watery stool | no-observed-adverse-effect-level (NOAEL) ([3]; repeated dosing): highest dose levels tested | AUC0→τ,ss [4, 6]: 5639.9 ± 2675.9 ng·h/mL | Cmax,ss [4, 6]: 685.6 ± 335.4 ng/mL | Tmax,ss ([4]; Day 28, Cohort 1: 750 mg QD MG005 plus 200 mg QD sorafenib): 6.0 (5.0–6.0) Hr | AUC0→τ,ss [4, 7]: 5553.7 ± 950.2 ng·h/mL | Cmax,ss [4, 7]: 786.0 ± 180.0 ng/mL | Tmax,ss [4, 8]: 4.0 (2.1–4.1) Hr | AUC0→τ,ss [4, 9]: 6249.6 ± 2619.6 ng·h/mL | Cmax,ss [4, 9]: 620.0 ± 382.6 ng/mL | Tmax,ss ([4]; Day 28, Cohort 3: 750 mg BID MG005 plus 200 mg QD sorafenib): 14.0 (0.0–23.9) Hr | bioavailability ([4]; patients, oral): low bioavailability | absorption ([4]; patients, 750 mg QD to 1500 mg QD gave no significant increase in bioavailability): poor absorption | half-life ([4]; patients, compared to sorafenib): significantly shorter half-life when compared to sorafenib | findings of repeated toxicity studies ([5]; rat, in vivo): did not cause major abnormality except emesis and watery stool | no-observed-adverse-effect-level (NOAEL) ([5]; repeated dosing): highest dose levels tested

CNC(=O)c1cc(Oc2ccc(NC(=O)Nc3ccc(Cl)c(C(F)(F)F)c3)cc2)ccn1 [sorafenib, reference compound]
Tmax,ss [4, 8]: 8.0 (2.1–23.5) Hr | AUC ([4]; human, plasma, oral, Day 28, Cohort 1: 750 mg QD MG005 plus 200 mg QD sorafenib, mean ± SD): 88600 ng·h/mL | AUC ([4]; human, plasma, oral, Day 28, Cohort 2: 1500 mg QD MG005 plus 200 mg QD sorafenib, mean ± SD): 51400 ng·h/mL | AUC ([4]; human, plasma, oral, Day 28, Cohort 3: 750 mg BID MG005 plus 200 mg QD sorafenib, mean ± SD): 30600 ng·h/mL | Cmax ([4]; human, plasma, oral, Cmax,ss, Day 28, Cohort 2: 1500 mg QD MG005 plus 200 mg QD sorafenib, mean ± SD): 3730 ± 1530 ng/mL
